The values that follow are results of earlier work, collected in patent US20180206486A1, “Stable Agricultural Compositions” (Ceradis B.V., priority 2015, published 2018).

The test system of series [1] is downy mildew (Plasmopara viticola). Particulars: in vivo.
The next series has as its system rodents. The following applies: after oral and dermal administration and inhalatory exposure.

For Potassium phosphite, the “effectiveness as fungicide against downy mildew” value in series [1] was “effective”. Further, the toxicity in rodents entry in the series with rodents is reported as “low toxicity”.
